Target: T1, sigma-1 receptor (guinea pig brain) (Cavia porcellus, UniProt Q60492)
T1 construct: from tissue; host or cells: guinea pig brain
Assay: Antagonism of haloperidol binding to guinea pig sigma-1 receptors
Details: sigma-1, guinea pig brain; for % Inhibition: test concentration not given

T1 sequence (Q60492 whole entry): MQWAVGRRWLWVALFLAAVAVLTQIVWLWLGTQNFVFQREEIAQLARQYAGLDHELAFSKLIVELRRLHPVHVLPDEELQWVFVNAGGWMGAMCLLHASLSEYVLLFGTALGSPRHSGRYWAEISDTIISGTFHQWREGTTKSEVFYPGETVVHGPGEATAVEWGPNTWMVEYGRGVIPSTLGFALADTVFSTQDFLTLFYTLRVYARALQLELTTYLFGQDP

| Compound | IC50 | % Inhibition |
| --- | --- | --- |
| O=C1CCC2(CCN(S(=O)(=O)c3ccccc3)CC2)Nc2ccccc21 [Compound 17, 1′-(Benzenesulfonyl)-3,4-dihydrospiro[5H-1-benzazepine-2(1H)-4′-piperidin]-5-one] | > 1 µM | <50% |
| N#Cc1ccc(CN2CCC3(CCC(=O)c4ccccc4N3)CC2)cc1 [Compound 24, 1′-(4-cyanobenzyl)-3,4-dihydrospiro[5H-1-benzazepine-2(1H), 4′-piperidin]-5-one] | – | >50% |
| CCN(CC)C(=O)N1CCC2(CCC(=O)c3ccccc3N2)CC1 [Compound 15, 1′-(Diethylcarbamyl)-3,4-dihydrospiro[5H-1-benzazepine-2(1H)-4′-piperidin]-5-one] | > 1 µM | <50% |
| CC(=O)N1CCC2(CCC(=O)c3ccccc3N2)CC1 [Compound 10, 1′-Acetyl-3,4-dihydrospiro[5H-1-benzazepine-2(1H), 4′-piperidin]-5-one] | – | >50% |
| CC(C)(C)c1ccc(C(=O)N2CCC3(CCC(=O)c4ccccc4N3)CC2)cc1 [Compound 14, 1′-(4-tert-Butylbenzoyl)-3,4-dihydrospiro[5H-1-benzazepine-2(1H)-4′-piperidin]-5-one] | > 1 µM | <50% |
| O=C1CCC2(CCN(C(=O)c3ccc4ccccc4c3)CC2)Nc2ccccc21 [Compound 16, 1′-(2-Naphthoyl)-3,4-dihydrospiro[5H-1-benzazepine-2(1H)-4′-piperidin]-5-one] | > 1 µM | <50% |
| 1′-(iso-nicotinyl)-3,4-dihydrospiro[5H-1-benzazepine-2(1H)-4′-piperidin]-5-one [Compound 20] | > 1 µM | <50% |
| O=C1CCC2(CCN(CC3CO3)CC2)Nc2ccccc21 (stereo not drawn) [Compound 28, 1′-(epoxymethyl)-3,4-dihydrospiro[5H-1-benzazepine-2(1H)-4′-piperidin]-5-one] | – | >50% |
| O=C1CCC2(CCN(Cc3ccc(OC(F)(F)F)cc3)CC2)Nc2ccccc21 [Compound 18, 1′-(4-Trifluoromethoxybenzyl)-3,4-dihydrospiro[5H-1-benzazepine-2(1H), 4′-piperidin]-5-one] | – | >50% |
| C=C(C)CCN1CCC2(CCC(=O)c3ccccc3N2)CC1 [Compound 23, 1′-(3-methyl-3-butene)-3,4-dihydrospiro[5H-1-benzazepine-2(1H)-4′-piperidin]-5-one] | – | >50% |
| O=C1CCC2(CCN(CCC3CCCCC3)CC2)Nc2ccccc21 [Compound 25] | – | >50% |
| O=C1CCC2(CCN(C(=O)c3ccc(Cl)c(Cl)c3)CC2)Nc2ccccc21 [Compound 12, 1′-(3,4-Dichlorobenzoyl)-3,4-dihydrospiro[5H-1-benzazepine-2(1H)-4′-piperidin]-5-one] | > 1 µM | <50% |
| CC(C)(C)CCN1CCC2(CCC(=O)c3ccccc3N2)CC1 [Compound 27, 1′-(3,3-dimethylbutane)-3,4-dihydrospiro[5H-1-benzazepine-2(1H)-4′-piperidin]-5-one] | – | >50% |
| COC(=O)c1ccc(CN2CCC3(CCC(=O)c4ccccc4N3)CC2)cc1 [Compound 22, 1′-(Methyl-(4-methylbenzoate))-3,4-dihydrospiro[5H-1-benzazepine-2(1H), 4′-piperidin]-5-one] | < 1 µM | >50% |
| CC(C)CCN1CCC2(CCC(=O)c3ccccc3N2)CC1 [Compound 29, 1′-(3-methylbutane)-3,4-dihydrospiro[5H-1-benzazepine-2(1H)-4′-piperidin]-5-one] | < 0.1 µM | >50% |
| C=CCN1CCC2(CCC(=O)c3ccccc3N2)CC1 [Compound 26, 1′-(allyl)-3,4-dihydrospiro[5H-1-benzazepine-2(1H)-4′-piperidin]-5-one] | – | >50% |

Reference: patent publication US6476019B1, “Spirocyclic ligands for sigma receptors, and libraries and methods of use thereof” (Sepracor Inc., priority 1999, dated 2002)
